# Data from patent US20150011423A1, “MEANS AND METHODS FOR ASSESSING KIDNEY TOXICITY” (BASF SE, priority 2011, published 2015).
# Marks after values point to notes of the source that are not given here.
# System: rats
# Experiment: 28-day repeated dose study in rats with mass spectrometry-based plasma metabolite profiling (GC-MS, LC-MS, SPE-LC-MS); treatment ratios versus control
# Settings: plasma
# [1] = female rats, day 7, high dose, Table 4a inhibition of weak acid excretion
# [2] = female rats, day 7, high dose, Table 4b inhibition of weak acid excretion
# [3] = female rats, day 14, high dose, Table 4a inhibition of weak acid excretion
# [4] = female rats, day 14, high dose, Table 4b inhibition of weak acid excretion
# [5] = female rats, day 28, high dose, Table 4a inhibition of weak acid excretion
# [6] = female rats, day 28, high dose, Table 4b inhibition of weak acid excretion
# [7] = male rats, day 7, high dose, Table 4c inhibition of weak acid excretion
# [8] = male rats, day 7, high dose, Table 4d inhibition of weak acid excretion
# [9] = male rats, day 14, high dose, Table 4c inhibition of weak acid excretion
# [10] = male rats, day 14, high dose, Table 4d inhibition of weak acid excretion
# [11] = male rats, day 28, high dose, Table 4c inhibition of weak acid excretion
# [12] = male rats, day 28, high dose, Table 4d inhibition of weak acid excretion
compound,measurement,setting,value
Oc1c(Cl)c(Cl)c(Cl)c(Cl)c1Cl [Pentachlorophenol],"Glycerol, lipid fraction, treatment ratio versus control",[1],1.56 *
same,"Linoleic acid (C18:cis[9,12]2), treatment ratio versus control",[1],1.35 *
same,"Lysophosphatidylcholine (C18:2), treatment ratio versus control",[1],1.32 *
same,"Phosphatidylcholine (C16:0, C16:0), treatment ratio versus control",[1],1.04^
same,"Phosphatidylcholine (C16:0, C18:2), treatment ratio versus control",[1],1.02^
same,"Phosphatidylcholine (C16:0, C20:5), treatment ratio versus control",[1],1.05 *
same,"Phosphatidylcholine (C16:1, C18:2), treatment ratio versus control",[1],0.87^
same,"Phosphatidylcholine (C18:0, C18:1), treatment ratio versus control",[1],0.98^
same,"Phosphatidylcholine (C18:1, C18:2), treatment ratio versus control",[1],0.85^
same,"gamma-Linolenic acid (C18:cis[6,9,12]3), treatment ratio versus control",[1],0.78 *
same,"Arginine, treatment ratio versus control",[2],0.56 *
same,"Indole-3-lactic acid, treatment ratio versus control",[2],0.62 *
same,"Ketoleucine, treatment ratio versus control",[2],0.6 *
same,"Proline, treatment ratio versus control",[2],0.73 *
same,"Tryptophan, treatment ratio versus control",[2],0.6 *
same,"trans-4-Hydroxyproline, treatment ratio versus control",[2],0.87 *
same,"Glycerol, lipid fraction, treatment ratio versus control",[3],2.38 *
same,"Linoleic acid (C18:cis[9,12]2), treatment ratio versus control",[3],1.8 *
same,"Lysophosphatidylcholine (C18:2), treatment ratio versus control",[3],1.41 *
same,"Phosphatidylcholine (C16:0, C16:0), treatment ratio versus control",[3],1.25 *
same,"Phosphatidylcholine (C16:0, C18:2), treatment ratio versus control",[3],1.34 *
same,"Phosphatidylcholine (C16:0, C20:5), treatment ratio versus control",[3],1.57 *
same,"Phosphatidylcholine (C16:1, C18:2), treatment ratio versus control",[3],1.32 *
same,"Phosphatidylcholine (C18:0, C18:1), treatment ratio versus control",[3],1.54 *
same,"Phosphatidylcholine (C18:1, C18:2), treatment ratio versus control",[3],1.4 *
same,"gamma-Linolenic acid (C18:cis[6,9,12]3), treatment ratio versus control",[3],1.81^
same,"Arginine, treatment ratio versus control",[4],0.72^
same,"Indole-3-lactic acid, treatment ratio versus control",[4],0.65 *
same,"Ketoleucine, treatment ratio versus control",[4],0.64 *
same,"Proline, treatment ratio versus control",[4],0.74 *
same,"Tryptophan, treatment ratio versus control",[4],0.62 *
same,"trans-4-Hydroxyproline, treatment ratio versus control",[4],0.92^
same,"Glycerol, lipid fraction, treatment ratio versus control",[5],1.61 *
same,"Linoleic acid (C18:cis[9,12]2), treatment ratio versus control",[5],1.73 *
same,"Lysophosphatidylcholine (C18:2), treatment ratio versus control",[5],1.66 *
same,"Phosphatidylcholine (C16:0, C16:0), treatment ratio versus control",[5],1.1 *
same,"Phosphatidylcholine (C16:0, C18:2), treatment ratio versus control",[5],1.49 *
same,"Phosphatidylcholine (C16:0, C20:5), treatment ratio versus control",[5],1.67 *
same,"Phosphatidylcholine (C16:1, C18:2), treatment ratio versus control",[5],1.54 *
same,"Phosphatidylcholine (C18:0, C18:1), treatment ratio versus control",[5],1.41 *
same,"Phosphatidylcholine (C18:1, C18:2), treatment ratio versus control",[5],1.3 *
same,"gamma-Linolenic acid (C18:cis[6,9,12]3), treatment ratio versus control",[5],3.23 *
same,"Arginine, treatment ratio versus control",[6],0.44 *
same,"Indole-3-lactic acid, treatment ratio versus control",[6],0.49 *
same,"Ketoleucine, treatment ratio versus control",[6],0.6 *
same,"Proline, treatment ratio versus control",[6],0.74 *
same,"Tryptophan, treatment ratio versus control",[6],0.54 *
same,"trans-4-Hydroxyproline, treatment ratio versus control",[6],0.94 *
Cc1cc(Cl)ccc1OCC(=O)O [MCPA],"Glycerol, lipid fraction, treatment ratio versus control",[1],1.69 *
same,"Linoleic acid (C18:cis[9,12]2), treatment ratio versus control",[1],1.66 *
same,"Lysophosphatidylcholine (C18:2), treatment ratio versus control",[1],1.38^
same,"Phosphatidylcholine (C16:0, C16:0), treatment ratio versus control",[1],1.52 *
same,"Phosphatidylcholine (C16:0, C18:2), treatment ratio versus control",[1],1.66 *
same,"Phosphatidylcholine (C16:0, C20:5), treatment ratio versus control",[1],2.03 *
same,"Phosphatidylcholine (C16:1, C18:2), treatment ratio versus control",[1],2.92 *
same,"Phosphatidylcholine (C18:0, C18:1), treatment ratio versus control",[1],1.57 *
same,"Phosphatidylcholine (C18:1, C18:2), treatment ratio versus control",[1],1.68^
same,"gamma-Linolenic acid (C18:cis[6,9,12]3), treatment ratio versus control",[1],4.23 *
same,"Arginine, treatment ratio versus control",[2],0.62 *
same,"Indole-3-lactic acid, treatment ratio versus control",[2],0.24 *
same,"Ketoleucine, treatment ratio versus control",[2],0.42 *
same,"Proline, treatment ratio versus control",[2],0.61 *
same,"Tryptophan, treatment ratio versus control",[2],0.17 *
same,"trans-4-Hydroxyproline, treatment ratio versus control",[2],0.57^
same,"Glycerol, lipid fraction, treatment ratio versus control",[3],1.38 *
same,"Linoleic acid (C18:cis[9,12]2), treatment ratio versus control",[3],1.36 *
same,"Lysophosphatidylcholine (C18:2), treatment ratio versus control",[3],1.45 *
same,"Phosphatidylcholine (C16:0, C16:0), treatment ratio versus control",[3],1.8 *
same,"Phosphatidylcholine (C16:0, C18:2), treatment ratio versus control",[3],1.82 *
same,"Phosphatidylcholine (C16:0, C20:5), treatment ratio versus control",[3],2.09 *
same,"Phosphatidylcholine (C16:1, C18:2), treatment ratio versus control",[3],2.88 *
same,"Phosphatidylcholine (C18:0, C18:1), treatment ratio versus control",[3],1.74 *
same,"Phosphatidylcholine (C18:1, C18:2), treatment ratio versus control",[3],2.12 *
same,"gamma-Linolenic acid (C18:cis[6,9,12]3), treatment ratio versus control",[3],2.93 *
same,"Arginine, treatment ratio versus control",[4],0.58 *
same,"Indole-3-lactic acid, treatment ratio versus control",[4],0.24 *
same,"Ketoleucine, treatment ratio versus control",[4],0.21 *
same,"Proline, treatment ratio versus control",[4],0.45 *
same,"Tryptophan, treatment ratio versus control",[4],0.18 *
same,"trans-4-Hydroxyproline, treatment ratio versus control",[4],0.47 *
same,"Glycerol, lipid fraction, treatment ratio versus control",[5],1.6 *
same,"Linoleic acid (C18:cis[9,12]2), treatment ratio versus control",[5],1.28 *
same,"Lysophosphatidylcholine (C18:2), treatment ratio versus control",[5],1.35 *
same,"Phosphatidylcholine (C16:0, C16:0), treatment ratio versus control",[5],1.78 *
same,"Phosphatidylcholine (C16:0, C18:2), treatment ratio versus control",[5],1.45 *
same,"Phosphatidylcholine (C16:0, C20:5), treatment ratio versus control",[5],1.61 *
same,"Phosphatidylcholine (C16:1, C18:2), treatment ratio versus control",[5],2.45 *
same,"Phosphatidylcholine (C18:0, C18:1), treatment ratio versus control",[5],1.56 *
same,"Phosphatidylcholine (C18:1, C18:2), treatment ratio versus control",[5],1.78 *
same,"gamma-Linolenic acid (C18:cis[6,9,12]3), treatment ratio versus control",[5],2.99 *
same,"Arginine, treatment ratio versus control",[6],0.58 *
same,"Indole-3-lactic acid, treatment ratio versus control",[6],0.23 *
same,"Ketoleucine, treatment ratio versus control",[6],0.15 *
same,"Proline, treatment ratio versus control",[6],0.42 *
same,"Tryptophan, treatment ratio versus control",[6],0.16 *
same,"trans-4-Hydroxyproline, treatment ratio versus control",[6],0.6 *
same,"3-Indoxylsulfate, treatment ratio versus control",[7],0.72^
same,"Aspartate, treatment ratio versus control",[7],0.58 *
same,"Ceramide (d18:1, C24:0), treatment ratio versus control",[7],1.2
same,"Cholesterolester No 01, treatment ratio versus control",[7],0.97^
same,"Lysophosphatidylethanolamine (C22:5), treatment ratio versus control",[7],1.16^
same,"Phosphatidylcholine (C16:0, C20:5), treatment ratio versus control",[7],1.73 *
same,"gamma-Linolenic acid (C18:cis[6,9,12]3), treatment ratio versus control",[7],1.69 *
same,"Arachidonic acid (C20:cis[5,8,11,14]4), treatment ratio versus control",[8],0.27 *
same,"Arginine, treatment ratio versus control",[8],0.72 *
same,"Aspartate, treatment ratio versus control",[8],0.58 *
same,"Choline plasmalogen (C18, C20:4), treatment ratio versus control",[8],0.64 *
same,"Cytosine, treatment ratio versus control",[8],0.63 *
same,"Glucose, treatment ratio versus control",[8],0.75 *
same,"Indole-3-lactic acid, treatment ratio versus control",[8],0.36 *
same,"Lysine, treatment ratio versus control",[8],0.4 *
same,"Lysophosphatidylcholine (C18:0), treatment ratio versus control",[8],0.81 *
same,"Methionine, treatment ratio versus control",[8],0.66 *
same,"Nervonic acid (C24:cis[15]1), treatment ratio versus control",[8],0.67 *
same,"Phosphatidylcholine (C18:0, C20:4), treatment ratio versus control",[8],0.36 *
same,"Ribal, treatment ratio versus control",[8],0.94 *
same,"3-Indoxylsulfate, treatment ratio versus control",[9],1.53 *
same,"Aspartate, treatment ratio versus control",[9],1.01^
same,"Ceramide (d18:1, C24:0), treatment ratio versus control",[9],2.39 *
same,"Cholesterolester No 01, treatment ratio versus control",[9],1.27 *
same,"Lysophosphatidylethanolamine (C22:5), treatment ratio versus control",[9],1.08^
same,"Phosphatidylcholine (C16:0, C20:5), treatment ratio versus control",[9],1.82 *
same,"gamma-Linolenic acid (C18:cis[6,9,12]3), treatment ratio versus control",[9],2.68 *
same,"Arachidonic acid (C20:cis[5,8,11,14]4), treatment ratio versus control",[10],0.42 *
same,"Arginine, treatment ratio versus control",[10],0.57 *
same,"Aspartate, treatment ratio versus control",[10],1.01^
same,"Choline plasmalogen (C18, C20:4), treatment ratio versus control",[10],0.76 *
same,"Cytosine, treatment ratio versus control",[10],0.63 *
same,"Glucose, treatment ratio versus control",[10],0.72 *
same,"Indole-3-lactic acid, treatment ratio versus control",[10],0.38
same,"Lysine, treatment ratio versus control",[10],0.3 *
same,"Lysophosphatidylcholine (C18:0), treatment ratio versus control",[10],0.83 *
same,"Methionine, treatment ratio versus control",[10],0.59 *
same,"Nervonic acid (C24:cis[15]1), treatment ratio versus control",[10],0.74 *
same,"Phosphatidylcholine (C18:0, C20:4), treatment ratio versus control",[10],0.55 *
same,"Ribal, treatment ratio versus control",[10],0.89 *
same,"3-Indoxylsulfate, treatment ratio versus control",[11],1.92 *
same,"Aspartate, treatment ratio versus control",[11],0.69^
same,"Ceramide (d18:1, C24:0), treatment ratio versus control",[11],1.72 *
same,"Cholesterolester No 01, treatment ratio versus control",[11],1.32 *
same,"Lysophosphatidylethanolamine (C22:5), treatment ratio versus control",[11],1.1
same,"Phosphatidylcholine (C16:0, C20:5), treatment ratio versus control",[11],2.11 *
same,"gamma-Linolenic acid (C18:cis[6,9,12]3), treatment ratio versus control",[11],2.54 *
same,"Arachidonic acid (C20:cis[5,8,11,14]4), treatment ratio versus control",[12],0.26 *
same,"Arginine, treatment ratio versus control",[12],0.68 *
same,"Aspartate, treatment ratio versus control",[12],0.69 *
same,"Choline plasmalogen (C18, C20:4), treatment ratio versus control",[12],0.45 *
same,"Cytosine, treatment ratio versus control",[12],0.6 *
same,"Glucose, treatment ratio versus control",[12],0.6 *
same,"Indole-3-lactic acid, treatment ratio versus control",[12],0.3 *
same,"Lysine, treatment ratio versus control",[12],0.33 *
same,"Lysophosphatidylcholine (C18:0), treatment ratio versus control",[12],0.73 *
same,"Methionine, treatment ratio versus control",[12],0.64 *
same,"Nervonic acid (C24:cis[15]1), treatment ratio versus control",[12],0.76 *
same,"Phosphatidylcholine (C18:0, C20:4), treatment ratio versus control",[12],0.24 *
same,"Ribal, treatment ratio versus control",[12],0.77 *
